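Briefly, cells in 96-well plates were exposed to five compound concentrations for 48 h, and endpoints were estimated by linear interpolation. GI50 is the concentration that inhibits growth by half.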 Active and inactive are the calls of the source. Rule as the data show it: active = GI50 up to about 1.1 µM and inactive = higher.
Columns and labels:
Assay in all cases: NCI tumour cell line growth inhibition, 48 h
786-0 = tested on: 786-0
A549 = tested on: A549
CAKI-1 = tested on: CAKI-1
HCC 2998 = tested on: HCC 2998
HCT-15 = tested on: HCT-15
HL-60 = tested on: HL-60
IGROV-1 = tested on: IGROV-1
KM12 = tested on: KM12
LOX IMVI = tested on: LOX IMVI
MDA-MB-231 = tested on: MDA-MB-231
NCI-H23 = tested on: NCI-H23
OVCAR-4 = tested on: OVCAR-4
OVCAR-5 = tested on: OVCAR-5
SF-268 = tested on: SF-268
SF-295 = tested on: SF-295
SK-MEL-28 = tested on: SK-MEL-28
SNB-19 = tested on: SNB-19
UO-31 = tested on: UO-31
SW-620 = tested on: SW-620

| SMILES | GI50 (786-0) | GI50 (A549) | GI50 (CAKI-1) | GI50 (HCC 2998) | GI50 (HCT-15) [µM] | GI50 (HL-60) | GI50 (IGROV-1) | GI50 (KM12) | GI50 (LOX IMVI) | GI50 (MDA-MB-231) | GI50 (NCI-H23) | GI50 (OVCAR-4) | GI50 (OVCAR-5) | GI50 (SF-268) | GI50 (SF-295) | GI50 (SK-MEL-28) | GI50 (SNB-19) | GI50 (UO-31) | GI50 (SW-620) |
| --- | --- | --- | --- | --- | --- | --- | --- | --- | --- | --- | --- | --- | --- | --- | --- | --- | --- | --- | --- |
| O=C(c1ccccc1)c1c(-c2ccccc2)n(-c2ccccc2)[nH]c(=O)c1=O | 31.2 µM (inactive) | > 100 µM (inactive) | 37.6 µM (inactive) | > 100 µM (inactive) | 78.2 | 32.2 µM (inactive) | 54.5 µM (inactive) | 54.3 µM (inactive) | 25.6 µM (inactive) | 20.2 µM (inactive) | 75 µM (inactive) | 32.6 µM (inactive) | > 100 µM (inactive) | 48.6 µM (inactive) | 28.2 µM (inactive) | > 100 µM (inactive) | 88.3 µM (inactive) | 48.4 µM (inactive) |  |
| CC(C)(C)OC(=O)CN1CCNCCN(CC(=O)OC(C)(C)C)CCNCC1 | > 100 µM (inactive) | 82 µM (inactive) | > 100 µM (inactive) | > 100 µM (inactive) | > 100 | 36.2 µM (inactive) | > 100 µM (inactive) | 98.9 µM (inactive) | 86.7 µM (inactive) | > 100 µM (inactive) |  | > 100 µM (inactive) | > 100 µM (inactive) |  | > 100 µM (inactive) | > 100 µM (inactive) | > 100 µM (inactive) | > 100 µM (inactive) | > 100 µM (inactive) |
| O=C(O)/C=C/C(=O)N1Cc2cc3ccccc3nc2C1 | > 100 µM (inactive) | > 100 µM (inactive) | > 100 µM (inactive) | > 100 µM (inactive) | > 100 | > 100 µM (inactive) | > 100 µM (inactive) | > 100 µM (inactive) | > 100 µM (inactive) | > 100 µM (inactive) | > 100 µM (inactive) |  | > 100 µM (inactive) | > 100 µM (inactive) | > 100 µM (inactive) | > 100 µM (inactive) | > 100 µM (inactive) | > 100 µM (inactive) | > 100 µM (inactive) |
| CC(=O)N1C(OC(C)C)CC(C)N1c1ccccc1 (stereo not given) | > 10 µM (inactive) | > 10 µM (inactive) | > 10 µM (inactive) | > 10 µM (inactive) | > 10 | > 10 µM (inactive) | > 10 µM (inactive) |  | > 10 µM (inactive) | > 10 µM (inactive) | > 10 µM (inactive) | > 10 µM (inactive) | > 10 µM (inactive) | > 10 µM (inactive) | > 10 µM (inactive) | > 10 µM (inactive) | > 10 µM (inactive) |  | > 10 µM (inactive) |
| CC(C)/C=N\n1c(N)c(C#N)c(C#N)c1C(C)C | 40.2 µM (inactive) | 25.2 µM (inactive) | 20.5 µM (inactive) | 13.4 µM (inactive) | 24.3 | 26.1 µM (inactive) | 18.3 µM (inactive) | 27 µM (inactive) | 19 µM (inactive) | 19.4 µM (inactive) | 24 µM (inactive) | 18.2 µM (inactive) | 21.7 µM (inactive) | 28.1 µM (inactive) | 16.8 µM (inactive) |  | 34.9 µM (inactive) | 15.8 µM (inactive) | 38.1 µM (inactive) |
| O=C1OC[C@@H]2[C@@H](O)CCCCCN12 | > 10 µM (inactive) | > 100 µM (inactive) | > 100 µM (inactive) | > 100 µM (inactive) | > 100 | > 100 µM (inactive) | > 100 µM (inactive) | > 100 µM (inactive) | > 100 µM (inactive) | > 100 µM (inactive) |  | > 100 µM (inactive) | > 100 µM (inactive) |  | > 100 µM (inactive) | > 100 µM (inactive) | > 100 µM (inactive) | > 100 µM (inactive) | > 100 µM (inactive) |

From ChEMBL document CHEMBL1201862, “PubChem BioAssay data set” (2004)
